Data set [1] deals with SARS-CoV. As to conditions: fRhK4 cell line; for EC50 (μg/ml) at 48 hrs / EC50 (μg/ml) at 72 hrs: 10 strains of SARS-CoV, inhibition of cytopathic effect to 50% of control. In general terms: Cytopathic effects are the visible damage that an infection or toxin causes in cultured cells.
The subject of data set [2] is fRhK4 cell line.
Data set [3] deals with HIV-1. To be noted: cited from earlier work.
The conditions of data set [4]: in vivo, cited from earlier work.
The conditions of data set [5]: human, in vivo; cited from earlier work.

Results on one substance are retold here after US7605135B2 (priority 2003, dated 2009).

Where two headings read alike, the source gives them in different places.

As usually defined, the CC50 is the concentration at which the toxic effect on the cells reaches its halfway point. With baicalin, in data set [1], the “EC50 (μg/ml) at 48 hrs” value was 12.5 to 25 µg/mL and the “EC50 (μg/ml) at 72 hrs” value was in the range of 25 to 50 µg/mL. In data set [1] (listed as baicalin), the “EC50 (μg/ml) at 48 hrs” value was 12.5 to 25 µg/mL and the “EC50 (μg/ml) at 72 hrs” value was in the range of 25 to 50 µg/mL. Also, in data set [1] (selectivity index), the “SI = CC50/EC50 at 48 hrs” value was above 8. Further, the “CC50” value in data set [2] was above 100 µg/mL. Further, in data set [3], the Antiviral effect entry is “Inhibition of HIV-1 [Kitamura K et al., “Baicalin: an inhibitor of HIV-1”. Besides, in data set [4] (human, po), the “Serum level (after oral administration) Cmax” value was “Cmax = 60 ng/mL (189.8 mg/person, in human). The amount (i.e., 189.8 mg/”. Further, the “Half life (in humans)” value in data set [4] (human) is ~3 hrs in humans Muto R et al., “The chemical structure of new substance. Moreover, the “Serum concentration after oral dose” value in data set [4] (po) was 0.47 µg/mL. Also, in data set [5], the “Serum level (after intravenous administration) Cmax” value is on record as 74.
